Measurements: patent US20120322060A1, “DIAGNOSIS AND MONITORING TREATMENT OF PSYCHIATRIC DISEASES WITH SPADIN AND RELATED METHODS” (CENTRE NATIONAL DE LE RECHERCHE SCIENTIFIQUE - CNRS -, priority 2011, published 2012)
Entries after “also recorded” stand apart in the source; their conditions may differ. No end group written: not given here.

Legend:
[1] = tested on: mice; assay: Porsolt Forced Swim Test (FST) in mice; assay type: in vivo, mouse; conditions: for reduced immobility time: acute, 30 min before test
Procedure: Mice (Janvier, France) were placed individually in cylinders (height: 30 cm, diameter: 15 cm) filled with 12 cm deep water (temperature: 22±1° C.) for 6 min. The total period of immobility was recorded during the last 4 min.

[2] = tested on: CREB; assay: pCREB immunostaining in hippocampal sections; assay type: in vivo, mouse; conditions: 4 days, i.p. 10^-5 M, hippocampal SGZ
Procedure: Free floating sections were permeabilized in 0.1% Triton/PBS for 10 min and blocked with 3% goat serum/PBS for 2 hours at room temperature followed by a single wash in PBS. Sections were then incubated with the monoclonal anti-pCREB antibody (1:300, Cell Signaling Technology) overnight at 4° C. After three washes in PBS, sections were then incubated in biotinylated horse anti-rabbit IgG (Jackson ImmunoResearch, diluted 1:15000) for 2 hours at room temperature. pCREB expression was visualized by 3.3′-diaminobenzidine (DAB) staining using the VectaStain ABC kit (Biovalley). All sections were washed and mounted with Entellan. For BrdU/pCREB immunofluorescence staining, free floating sections of mice injected with BrdU were incubated with the primary antibodies, anti-rabbit pCREB (1:500, Cell Signaling Technology) and anti-mouse BrdU (1:40, Becton-Dickinson). After three washesin PBS, sections were then incubated in anti-IgGAlexa 488- or 594-coupled antibodies (Molecular Probes) for 1 h at room temperature. After drying sections in the dark boxes for 2 hours, they were mounted with Vectashield (Vector laboratories). Confocal microscopy observations were performed with the Laser Scanning Confocal Microscope (TCS SP, Leica) equipped with a DMIRBE inverted microscope, using a Plan Apo 63x/1,4 NA oil immersion objective.

[3] = tested on: mice; assay: Novelty-Suppressed Feeding test (NSF); assay type: in vivo, mouse; conditions: 4 days; spadin i.v. 10^-6 M, fluoxetine i.p. 3 mg/kg; 3 mg/kg
Procedure: NSF paradigm is a conflict test that elicits competing motivations: the drive to eat and the fear of venturing into the center of a bright arena. Latency to begin eating is used as an index of anxiety- and depression-like behavior. After 4 day treatment (saline or spadin, i.v.) and 24 hours food-deprivation, mice were presented with a food pellet placed in the center of a brightly plastic box (50×50×20 cm). Latency to begin eating was measured as previously described.

[4] = tested on: CREB; assay: Total CREB and pCREB Western blotting of hippocampus; assay type: in vivo, mouse; conditions: 4-day treatment, i.p. 10^-5 M, hippocampus extracts
Procedure: Mouse brains were dissected on ice. Isolated hippocampi (1-2 mg wet tissue/100 μl) were homogenized in a solubilization buffer containing 20 mM HEPES (pH:7.9), 0.4 M NaCl, 20% (v/v) glycerol, 1% (v/v) Nonidet P-40, 5 mM MgCl2, 0.5 mM EDTA, 0.1 mM EGTA and protease inhibitor cocktail using a dounce homogenizer. The homogenates were centrifuged 30 min at 15,000×g at 4° C. Supernatants were stored at −70° C. until further use. Protein concentrations were measured using conventional Bradford's method. Samples ([…] proteins from each experimental group) were resuspended in SDS buffer, sonicated, boiled for 5 min before loading on 10% SDS PAGE gels and electrophoresed for 2 hours at 60 mA. Proteins were then transferred from gels onto Hybond-PVDF membranes (Amersham Biosciences) in blotting buffer (156 mM Tris, 1 M glycine, PBS) for 90 min at 80 mA and blocked with 5% skim milk (Regilait) in PBS for 2 hours at room temperature. […] Total CREB or tubulin contents were determined after stripping by using 1/1000 dilution of anti-CREB antibody (Cell Signaling Technology) and 1/1000 dilution of anti-tubulin antibody (Sigma-Aldrich). […] Relative intensities of the labeled bands were analyzed by densitometric scanning using Image) imaging system. CREB activation was expressed as the ratio between pCREB and total CREB present in each sample.

[5] = tested on: mice; assay: Corticosterone assay after tube restraint stress; assay type: in vivo, mouse; conditions: 30 min after 10 min tube restraint; spadin i.p. 10^-5 M
Procedure: Mice were individually housed for at least 12 hours before blood sample collection. Serum samples, collected in the morning were obtained by retroorbital puncture before and 30 min after the end of a 10-min tube restraint. Levels of corticosterone were measured by radioimmunoassay using a commercially available kit (MP Biomedicals).

[6] = tested on: mice; assay: Tail Suspension Test (TST); assay type: in vivo, mouse
Procedure: Mice were suspended by the tail. […] The immobility time was recorded during a 6 min test session.

[7] = tested on: rats; assay: Forced Swim Test (FST) in rats; assay type: in vivo, rat; conditions: acute i.p. 10^-5 M, 30 min before test
Procedure: Male Sprague-Dawley rats (Janvier, France), weighing 250-300 g were also used for the FST. Rats experienced a pretest session followed 24 h later by a test session. For both the pretest and the test sessions, conducted under low illumination (15 W), the animals were placed in a plastic cylindrical tank (50 cm high by 20 cm in diameter) filled with 40 cm deep water at 24° C. The pretest was carried out for 15 minutes and the test for 5 minutes in the same tank. The total period of immobility was analyzed during the last 4 min.

[8] = subchronic, 4 days, spadin i.v. 10^-6 M, fluoxetine 3 mg/kg

APLPRWSGPIGVSWGLR [spadin]
reduced immobility time ([1]; i.c.v., 10^-7 M): 66.8%
reduced immobility time ([1]; i.p., 10^-8 M): 55.30%
reduced immobility time ([1]; i.v., 10^-6 M): 62.9%
reduction of time of immobility ([1]; chronic, 15 days, spadin 10^-6 M, fluoxetine 1 mg/kg): around 30%
effect in FST ([1]; injection in kcnk2-/- mice): did not induce any change
reduction of time spent immobile [1, 8]: 43.2%
number of pCREB-labelled neurons versus saline [2]: two-fold increase
latency to feed versus saline [3]: significant decrease in latency to feed; also recorded: significantly reduced the latency to feed
stimulation of pCREB (quantification of blots) [4]: 4 fold
reduction of stress-induced increase in corticosterone levels versus saline [5]: 79.5%
immobility times versus saline ([6]; acute, i.v., 10^-6 M, 30 min before test): significantly reduced immobility times
effect in TST ([6]; injection in kcnk2-/- mice): did not induce any change
reduction of time spent immobile [6, 8]: 28.1%
immobility time versus saline [7]: significantly reduced immobility time; also recorded: shorter time of immobility
